Results taken from patent publication US11491120B2, “Pharmacological prophylactics against stress-induced affective disorders in females” (The Trustees of Columbia University in the City of New York, priority 2017, dated 2022).
“Also recorded” adds a separate entry of the source.

System: female 129S6/SvEv mice
Assay: Forced swim test (FST), immobility time, after stress
[1] = Forced Swim Test Day 1, Dunnett test Sal vs. drug (0.1), 1 week prophylactic drug
[2] = Forced Swim Test Day 1, Dunnett test Sal vs. drug (0.3), 1 week prophylactic drug
[3] = Forced Swim Test Day 1, Dunnett test Sal vs. drug (2.5), 1 week prophylactic drug
[4] = Forced Swim Test Day 1, Dunnett test Sal vs. drug (10), 1 week prophylactic drug
[5] = Ovariectomized cohort, 1 week prophylactic drug, Forced Swim Test Day 1, OVX mice, K (10), (2R,6R)-HNK (0.025)
[6] = Ovariectomized cohort, 1 week prophylactic drug, Forced Swim Test Day 1, Sham mice, K (10), (2R,6R)-HNK (0.025)
[7] = Ovariectomized cohort, 1 week prophylactic drug, Forced Swim Test Day 1, Sham vs OVX, same drug, K (10), (2R,6R)-HNK (0.025)
[8] = Ovariectomized, E2/P4 replacement, 1 week prophylactic drug, Forced Swim Test Day 2, K (10), (2R,6R)-HNK (0.025), FIG. 5F
[9] = Ovariectomized, same drug, hormone Vehicle vs. E2/P4 replacement, 1 week prophylactic drug, Forced Swim Test Day 2, K (10), (2R,6R)-HNK (0.025), FIG. 5F
[10] = Sal vs. (2R,6R)-HNK (0.025), Fisher's PLSD, 1 week prophylactic drug, learned helplessness stress, Forced Swim Test Day 1
[11] = Sal vs. (2R,6R)-HNK (0.025), Fisher's PLSD, 3 day prophylactic drug/Forced Swim Test Day 1
[12] = Same drug, Sham vs. ovariectomized, 1 week prophylactic drug, Forced Swim Test Day 2, K (10), (2R,6R)-HNK (0.025), FIG. 5C
[13] = Sham-operated females, 1 week prophylactic drug, Forced Swim Test Day 2, K (10), (2R,6R)-HNK (0.025), FIG. 5C

Q: Which “p, Immobility Time (min 5)” value [1] does the source give for `N[C@@]1(c2ccccc2Cl)CCC[C@@H](O)C1=O` [(2R,6R)-HNK, (2R,6R)-hydroxynorketamine] here?
A: Its value is 0.2856.

Q: And the “p, Immobility Time (min 6)” value [1]?
A: Its value is 0.9218.

Q: What about the “p, Immobility Time Average (min 3-6)” value [1] of the same molecule?
A: Its value is 0.3240.

Q: And the “p, Immobility Time (min 1)” value [2]?
A: The value was 0.0586.

Q: What about the “p, Immobility Time (min 1-6)” value [2] of the same molecule?
A: The value was >0.9999.

Q: And the “p, Immobility Time (min 3)” value [2]?
A: The value was >0.9999.

Q: What about the “p, Immobility Time (min 4)” value [2] of the same molecule?
A: Its value is 0.7424.

Q: And the “p, Immobility Time (min 5)” value [2]?
A: The value was 0.3614.

Q: What about the “p, Immobility Time (min 6)” value [2] of the same molecule?
A: Its value is 0.9996.

Q: What about the “p, Immobility Time Average (min 3-6)” value [2] of the same molecule?
A: Its value is 0.9455.

Q: What about the “* (significance), Immobility Time (min 1)” value [3] of the same molecule?
A: Its value is “** (** p<0.01)”.

Q: What about the “p, Immobility Time (min 1)” value [3] of the same molecule?
A: Its value is 0.0026.

Q: What about the “p, Immobility Time (min 1-6)” value [3] of the same molecule?
A: The value was 0.7127.

Q: And the “p, Immobility Time (min 3)” value [3]?
A: Its value is 0.9998.

Q: What about the “p, Immobility Time (min 4)” value [3] of the same molecule?
A: Its value is 0.9999.

Q: What about the “p, Immobility Time (min 5)” value [3] of the same molecule?
A: Its value is 0.9867.

Q: What about the “p, Immobility Time (min 6)” value [3] of the same molecule?
A: The value was 0.9994.

Q: What about the “p, Immobility Time Average (min 3-6)” value [3] of the same molecule?
A: Its value is 0.9997.

Q: And the “p, Immobility Time (min 1)” value [4]?
A: Its value is 0.0528.

Q: And the “p, Immobility Time (min 1-6)” value [4]?
A: Its value is 0.9943.

Q: What about the “p, Immobility Time (min 3)” value [4] of the same molecule?
A: The value was 0.6584.

Q: And the “p, Immobility Time (min 4)” value [4]?
A: The value was 0.5947.

Q: And the “p, Immobility Time (min 5)” value [4]?
A: The value was 0.6743.

Q: What about the “p, Immobility Time (min 6)” value [4] of the same molecule?
A: Its value is 0.1601.

Q: And the “p, Immobility Time Average (min 3-6)” value [4]?
A: Its value is 0.3035.

Q: And the “p, Immobility Time (min 1-6), OVX Sal vs OVX drug” value [5]?
A: The value was 0.2525.

Q: What about the “p, Immobility Time Average (min 3-6), Fisher's PLSD, OVX Sal vs OVX drug” value [5] of the same molecule?
A: The value was 0.3199.

Q: What about the “p, Immobility Time (min 1-6), Sham Sal vs Sham drug” value [6] of the same molecule?
A: Its value is 0.7085.

Q: What about the “p, Immobility Time Average (min 3-6), Fisher's PLSD, Sham Sal vs Sham drug” value [6] of the same molecule?
A: The value was 0.9957.

Q: And the “* (significance), Immobility Time (min 1-6), Sham drug vs OVX drug” value [7]?
A: The value was “*** (*** p<0.0001)”.

Q: What about the “* (significance), Immobility Time Average (min 3-6), Fisher's PLSD, Sham drug vs OVX drug” value [7] of the same molecule?
A: Its value is “*** (*** p<0.0001)”.

Q: And the “p, Immobility Time (min 1-6), Sham drug vs OVX drug” value [7]?
A: Its value is <0.0001.

Q: And the “p, Immobility Time Average (min 3-6), Fisher's PLSD, Sham drug vs OVX drug” value [7]?
A: The value was 0.0001.

Q: And the “p, Fisher's PLSD, Immobility Time Average (min 3-6), OVX Sal vs. OVX drug” value (Ovariectomized females, 1 week prophylactic drug, Forced Swim Test Day 2, K (10), (2R,6R)-HNK (0.025), FIG. 5C)?
A: Its value is 0.9445.

Q: What about the “p, Fisher's PLSD, Immobility Time Average (min 3-6), E2/P4 Sal vs. E2/P4 drug” value [8] of the same molecule?
A: Its value is 0.0316.

Q: And the “significance (*), Fisher's PLSD, Immobility Time Average (min 3-6), E2/P4 Sal vs. E2/P4 drug” value [8]?
A: The value was “* (* p<0.05)”.

Q: What about the “p, Fisher's PLSD, Immobility Time Average (min 3-6), Vehicle Sal vs. Vehicle drug” value (Ovariectomized, hormone Vehicle, 1 week prophylactic drug, Forced Swim Test Day 2, K (10), (2R,6R)-HNK (0.025), FIG. 5F) of the same molecule?
A: The value was 0.6287.

Q: What about the “p, Fisher's PLSD, Immobility Time Average (min 3-6), Vehicle drug vs. E2/P4 drug” value [9] of the same molecule?
A: Its value is 0.0013.

Q: And the “significance (*), Fisher's PLSD, Immobility Time Average (min 3-6), Vehicle drug vs. E2/P4 drug” value [9]?
A: The value was “** (** p<0.01)”.

Q: What about the “*, Immobility Time (min 1)” value [10] of the same molecule?
A: Its value is “** (** p<0.01)”.

Q: And the “*, Immobility Time (min 2)” value [10]?
A: Its value is “*** (*** p<0.0001)”.

Q: And the “*, Immobility Time (min 3)” value [10]?
A: The value was “*** (*** p<0.0001)”.

Q: What about the “*, Immobility Time (min 4)” value [10] of the same molecule?
A: The value was “** (** p<0.01)”.

Q: What about the “*, Immobility Time (min 5)” value [10] of the same molecule?
A: The value was “** (** p<0.01)”.

Q: What about the “*, Immobility Time (min 6)” value [10] of the same molecule?
A: The value was “** (** p<0.01)”.

Q: And the “*, Immobility Time Average (min 1-6)” value [10]?
A: Its value is “*** (*** p<0.0001)”.

Q: What about the “p, Immobility Time (min 1)” value [10] of the same molecule?
A: The value was 0.0043.

Q: And the “p, Immobility Time (min 2)” value [10]?
A: Its value is <0.0001.

Q: And the “p, Immobility Time (min 3)” value [10]?
A: The value was 0.0001.

Q: What about the “p, Immobility Time (min 4)” value [10] of the same molecule?
A: Its value is 0.0009.

Q: What about the “p, Immobility Time (min 5)” value [10] of the same molecule?
A: The value was 0.0002.

Q: And the “p, Immobility Time (min 6)” value [10]?
A: The value was 0.0002.

Q: What about the “p, Immobility Time Average (min 1-6)” value [10] of the same molecule?
A: The value was 0.0001.

Q: And the “*, Immobility Time (min 1)” value [11]?
A: The value was “*** (*** p<0.0001)”.

Q: What about the “*, Immobility Time (min 2)” value [11] of the same molecule?
A: The value was “** (** p<0.01)”.

Q: And the “*, Immobility Time (min 3)” value [11]?
A: The value was “** (** p<0.01)”.

Q: What about the “*, Immobility Time (min 4)” value [11] of the same molecule?
A: The value was “** (** p<0.01)”.

Q: And the “*, Immobility Time (min 5)” value [11]?
A: Its value is “** (** p<0.01)”.

Q: What about the “*, Immobility Time (min 6)” value [11] of the same molecule?
A: Its value is “** (** p<0.01)”.

Q: And the “*, Immobility Time Average (min 3-6)” value [11]?
A: Its value is “** (** p<0.01)”.

Q: And the “p, Immobility Time (min 1)” value [11]?
A: The value was <0.0001.

Q: What about the “p, Immobility Time (min 2)” value [11] of the same molecule?
A: The value was 0.0005.

Q: And the “p, Immobility Time (min 3)” value [11]?
A: Its value is 0.0073.

Q: What about the “p, Immobility Time (min 4)” value [11] of the same molecule?
A: The value was 0.0039.

Q: What about the “p, Immobility Time (min 5)” value [11] of the same molecule?
A: Its value is 0.0006.

Q: What about the “p, Immobility Time (min 6)” value [11] of the same molecule?
A: Its value is 0.0006.

Q: And the “p, Immobility Time Average (min 3-6)” value [11]?
A: The value was 0.0008.

Q: And the “p, Immobility Time (min 1)” value (Sal vs. (2R,6R)-HNK (0.025), Fisher's PLSD, Antidepressant drug/Forced Swim Test Day 2)?
A: Its value is 0.2184.

Q: What about the “p, Immobility Time Average (min 3-6)” value (Sal vs. (2R,6R)-HNK (0.025), t-test, 24 hour prophylactic drug/Forced Swim Test Day 1) of the same molecule?
A: The value was 0.5779.

Q: And the “p, Fisher's PLSD, Immobility Time Average (min 3-6), Sham drug vs. OVX drug” value [12]?
A: The value was 0.0476.

Q: What about the “significance (*), Fisher's PLSD, Immobility Time Average (min 3-6), Sham drug vs. OVX drug” value [12] of the same molecule?
A: The value was “* (* p<0.05)”.

Q: And the “p, Fisher's PLSD, Immobility Time Average (min 3-6), Sham Sal vs. Sham drug” value [13]?
A: The value was 0.0099.

Q: What about the “significance (*), Fisher's PLSD, Immobility Time Average (min 3-6), Sham Sal vs. Sham drug” value [13] of the same molecule?
A: Its value is “** (** p<0.01)”.

Q: And the “Immobility in the FST (Day 1 and Day 2) vs saline” value (drug administered 1 hour after 3-shock CFC stressor, female mice)?
A: The value was “did not reduce immobility levels; also recorded: Neither (R,S)-ketamine nor (2R,6R)-HNK significantly affected immobility time”.

Q: And the “Prophylactically effective dose in females” value (female mice, 1 week before stressor)?
A: The value was 0.025 mg/kg.

Q: And the “Immobility in the FST vs saline” value (ovariectomized mice with cyclic E2 and P4 replacement, drug 1 week before CFC)?
A: Its value is “significantly less immobile compared to control saline mice; also recorded: significantly reduced immobility”.

Q: What about the “Prophylactic efficacy against stress-induced depressive-like behavior” value (single injection 1 week before stressor, female mice) of the same molecule?
A: The value was “significantly reduced stress-induced depressive-like behavior; also recorded: significantly decreased stress-induced depressive-like behavior; also recorded: is prophylactic against depressive-like behavior; also recorded: prophylactic against stress-induced depressive-like behavior; also recorded: effective prophylactics against a variety of stressors; also recorded: protect against stress-induced depressive-like behavior”.
